Results reported in patent publication US20200003756A1, “METHOD FOR OBSERVING SEBACEOUS GLAND” (MANDOM CORPORATION, priority 2017, published 2020).

Experiments:
[1] = test system: sebaceous-gland-structure A; assay: Observation of inside of sebaceous-gland-structure, lipid droplets of sebum in outermost layer / degree of progress of sebum production (Example 2); assay type: cell-based; conditions: test sample D, linoleic acid 1×10^−4 M plus test substance 1 μM, 24 hours (Experiment number 9); FIGS. 9 and 10
Protocol: Linoleic acid and linoleic acid receptor antagonist (manufactured by Abeam plc, trade name: GSK-3787) as test substances were added to the mixed medium obtained in Preparation Example 1 so that the concentration of linoleic acid was 1×10^−4 M and so that the concentration of the test substance was 1 μM, to obtain a test sample D.
One milliliter of the test sample A was added to each well of a 24-well plate. Next, the sebaceous-gland-structure A obtained in Preparation Example 6 was cultured in a suspended state in the test sample A in each well of the 24-well plate in the presence of 5% by volume carbon dioxide at 37° C. for 24 hours, to contact the sebaceous-gland-structure A with the test sample A (Experiment number 7). […]
Furthermore, the state of each cell of 40 cells in the outermost layer shown in each figure was evaluated by using the results shown in FIGS. 7 to 9 on the basis of the evaluation criterion described below. […]
Next, the degree of progress of sebum production in the sebaceous gland cell contained in the sebaceous-gland-structure A was evaluated by calculating the mean value of the points in the 40 cells in the outermost layer in FIGS. 7 to 9. […]

[2] = test system: sebaceous-gland-structure A; assay: Degree of sebum production from three-dimensional image analysis of outermost layer (Example 4); assay type: cell-based; conditions: 24 hours
Protocol: Linoleic acid and phytic acid as test substances were added to the mixed medium obtained in Preparation Example 1 (test sample A) so that the concentration of linoleic acid was 1×10^−4M and so that the concentration of the test sample was 100 μM, to obtain a test sample E. One milliliter of the test sample A was added to each well of a 24-well plate. Text, the sebaceous-gland-structure A obtained in Preparation Example 6 was cultured in a suspended state in the test sample A contained in each well of the 24-well plate in the presence of 5% by volume carbon dioxide at 37° C. for 24 hours, to contact the sebaceous-gland-structure A with the test sample A (Experiment number 10). In addition, the sebaceous-gland-structure A was contacted with the test sample B (Experiment number 11) or the test sample E (Experiment number 12) in the same manner as in Experiment, number 10 except that in Experiment number 10, the test sample B obtained in Example 1(1) (Experiment number 11) or the test sample E obtained in Example 4(1) (Experiment number 12) was used in place of the test sample A. Each of observation samples of Experiment numbers 10 to 12 was obtained in the same manner as in Preparation Example 7 except that in Preparation Example 7, the cultured sebaceous-gland-structure A obtained in Example 4(2) (Experiment numbers 10 to 12) was used in place of the cultured sebaceous-gland-structure A obtained in Preparation Example 6. The appearance of the sebaceous-gland-structure A contained in the observation sample of each of Experiment numbers 10 to 12 obtained in Example 4(3) was observed under a confocal microscope by using image analysis software (manufactured b Bitplane AG, trade name: Imaris), thereby giving three-dimensional image of the sebaceous-gland-structure A. Next, information of the outermost layer of the sebaceous-gland-structure A was extracted from the data of the resulting three-dimensional image by using image analysis software (manufactured by Bitplane AG, trade name: Imaris). Thereafter, the whole volume of the cells present in the outermost layer was calculated from the extracted information, and thereafter the sebum droplets contained in the outermost layer were counted. Using the whole volume of the cells present in the outermost layer and the number of lipid droplets of the sebum the degree of sebum production was calculated according to Formula (I): [Degree of Sebum production]=[Number of lipid droplets of sebum]/[Whole volume of cells present in outermost layer] (I)

SMILES	lipid droplets of sebum in the outermost layer of the sebaceous-gland-structure A [1]	sebum production-regulating action ([2]; phytic acid 100 μM in presence of linoleic acid 1×10^−4 M, conclusion from FIG. 11)	degree of sebum production (number of lipid droplets of sebum / whole volume of cells present in outermost layer) ([2]; test sample E, linoleic acid 1×10^−4 M plus phytic acid 100 μM, compared with test sample containing linoleic acid, FIG. 11)
O=C(NCCS(=O)(=O)c1ccc(C(F)(F)F)cn1)c1ccc(Cl)cc1 [linoleic acid receptor antagonist, GSK-3787]	no lipid droplet of sebum was found		
O=P(O)(O)O[C@H]1[C@H](OP(=O)(O)O)[C@@H](OP(=O)(O)O)[C@H](OP(=O)(O)O)[C@@H](OP(=O)(O)O)[C@H]1OP(=O)(O)O [phytic acid]		sebum production-inhibiting action	lower
